We go through 1 compound from patent publication US20120252773A1, “Method and composition for inhibiting cell proliferation and angiogenesis” (priority 2005, published 2012).

Assay [1] has as its system A549 human non-small cell lung cancer cells. The assay is described as follows: Cell growth inhibition, MTT, 7 days, A549. Type of assay: cell-based. The conditions noted are these: A549, 7 days, Example 15. The procedure:
To measure the inhibitory activity of (2) on growth of HDMVEC cells (Clonetics, San Diego, Calif.), 2,000 cells were seeded in each well of a 96-well plate in […] of EGM medium (Clonetics) supplemented with 5% fetal bovine serum (Sigma). The plate was incubated at 37° C. in a tissue culture incubator for 24 h, and then various concentrations of (2) dissolved in EGM were added to each well in 5-10 μl aliquots. Four wells were used for each concentration. Medium in each well was renewed with fresh test solution added every other day. After 7 days of culture, the viable cells were measured using reagents from an MTT kit (Promega Corporation, Madison, Wis.), using instructions provided by the supplier. The number of viable cells in treated wells relative to those in control wells gave the percentage of inhibition.
Compound (2) was evaluated in several different human cancer cell lines for its effects on cell growth. […]
To measure the inhibitory activity of test articles on growth of NSCLC cells, 2,000 cells were seeded in each well of a 96-well plate in […] of RPMI-1640 medium supplemented with 2 mM glutamine and 10% fetal bovine serum (growth medium). […] After 7 days of culture, the viable cells were measured using reagents from MTT kit (Promega Corporation, Madison, Wis.), using instructions provided by the supplier. […]

The test system of assay [2] is DU-145 Human Androgen-Independent Prostate Cancer Cells. The assay is described as follows: Apoptosis by TUNEL assay in DU-145 cells. The assay is classed as cell-based. The settings on record: DU-145, 10 μM, 24 hours. The procedure: DU-145 cells (ATCC) were treated with 10 μM (2) for 24 hours. Apoptosis was measured by the terminal deoxynucleotidyl transferase mediated dUTP nick end labeling (TUNEL) assay. This assay was conducted using the Apoptosis Detection Kit (Promega, Madison, Wis.) following the instructions provided by the manufacturer. Briefly, DU-145 cells were incubated with (2) for 24, 48, or 72 hours. At the end of incubation, cells were fixed with freshly prepared 4% methanol-free paraformaldehyde in PBS, washed, and then permeabilized in 0.2% Triton X-100 in PBS. The cells on the slides were then incubated with Tdt enzyme for 1 h at 37° C., stained with propidium iodide, and examined under a fluorescence microscope. Fragmented DNA was made visible with green fluorescence stain within the apoptotic cells.

The test system of assay [3] is PC-3 human prostate tumors. The assay is described as follows: PC-3 xenograft nude mouse model, tumor growth. The assay is classed as in vivo. The procedure: Compound (2) was evaluated using the xenograft nude Balb-C athymic mouse model for its in vivo anti-tumor activity against PC-3 human prostate tumors. The mice were obtained from Taconic Laboratories. The experiment was conducted by subcutaneously implanting PC-3 cells to the right flanks of BALB-C athymic nude mice (Taconic Laboratories) followed by observing tumor growth daily. There were 8 mice in the control and each treatment groups. When tumor volumes reached 70-100 mm^3, drug delivery was initiated at 3 dose levels of (2). The compound was delivered orally as follows: 0 mg/kg to the control group, 10 mg/kg to one treatment group, and 30 mg/kg to a second treatment group, each once daily for 28 days; and 100 mg/kg to a third treatment group, once weekly. Tumor volumes were measured twice weekly and body weights once weekly.
Mice were treated as in Example 7, except that one group received no oral (2), but instead received 7.5 mg/kg i.p. paclitaxel (Sigma) when the tumors reached 70-100 mm^3, while another group received both (2) orally at 10 mg/kg and paclitaxel i.p. at 7.5 mg/kg.

Take `C[C@@H]1Cc2cc(O)ccc2C2CCC3(C)/C(=C/COCCN(C)C)CCC3C21` (stereo partly drawn) [Compound (2), (E)-3-Hydroxy-7α-methyl-21-[(2-dimethylamino)ethoxy]-19-norpregna-1,3,5(10),17(20)-tetraene]: the “growth of NSCLC cells” value in assay [1] is reported as “inhibited the growth of NSCLC cells in a dose-response manner”. In addition, in assay [1], the “inhibitory activity compared with Cisplatin tested in parallel” value is reported as “much more potent than that of Cisplatin”. The “apoptosis, fragmented DNA (TUNEL)” value in assay [2] is “quite a few pieces of fragmented DNA were evident”. Also, the tumor growth rate entry in assay [3] (10 mg/kg oral once daily for 28 days), in assay [3] (30 mg/kg oral once daily for 28 days) and in assay [3] (100 mg/kg oral once weekly) was “markedly decreased growth rates” throughout. Also, the “reduction of microvascularization compared to control group” value in assay [3] (30 mg/kg oral) is given as “about 50%”.
